Values of other authors in US20100137246A1, “Anti-inflammatory compositions and methods” (Searete LLC, a limited liability corporation of the State …, priority 2008, published 2010).
Blank lines part the entries; values can stand above or below the molecule they belong to.

What was measured:
[1] = tested on: lethal septic shock in mice
[2] = single agent, infused at 400 mg over one hour
Fyn = Fyn (Homo sapiens, UniProt P06241); conditions: at nanomolar concentrations
proteasome = conditions: cultured breast cancer cells; through binding copper

Sequence of Fyn (P06241 whole entry, species assumed): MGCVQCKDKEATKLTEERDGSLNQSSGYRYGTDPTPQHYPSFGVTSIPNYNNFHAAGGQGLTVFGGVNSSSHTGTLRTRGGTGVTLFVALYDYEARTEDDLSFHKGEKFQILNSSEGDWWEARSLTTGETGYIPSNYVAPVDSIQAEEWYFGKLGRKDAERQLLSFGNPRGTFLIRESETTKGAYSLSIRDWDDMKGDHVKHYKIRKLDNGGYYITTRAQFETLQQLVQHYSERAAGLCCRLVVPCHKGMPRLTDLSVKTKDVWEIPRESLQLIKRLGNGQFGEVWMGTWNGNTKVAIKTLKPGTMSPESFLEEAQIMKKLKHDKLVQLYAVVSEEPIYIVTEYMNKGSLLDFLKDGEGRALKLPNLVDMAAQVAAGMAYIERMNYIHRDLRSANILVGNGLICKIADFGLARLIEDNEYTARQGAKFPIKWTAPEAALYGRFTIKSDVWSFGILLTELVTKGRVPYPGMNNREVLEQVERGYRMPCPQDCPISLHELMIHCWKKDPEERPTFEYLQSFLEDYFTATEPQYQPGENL

inhibition of CpG-induced Src family kinase activation, or its dependent cellular responses (Src family kinase): does not inhibit
SMILES: CCN(CC)CCCC(C)Nc1ccnc2cc(Cl)ccc12 (centres unmarked) [Chloroquine]

SMILES: Cl.Cl.Nc1ccccc1Oc1ccc2c(N)nsc2c1 [Example M62812, 3-amino-6-(2-aminophenoxy)-1,2-benzisothiazole dihydrochloride]
prevention of lethal septic shock [1]: prevents lethal septic shock

SMILES: CCN(CC)CCCC(C)Nc1ccnc2cc(Cl)ccc12.O=P(O)(O)O.O=P(O)(O)O (centres unmarked) [chloroquine phosphate, 7-chloro-4-[[4-(diethylamino)-1-methylbutyl]amino]quinoline phosphate (1:2)]
tolerability of infusion [2]: without complication

SMILES: Cc1nc(Nc2ncc(C(=O)Nc3c(C)cccc3Cl)s2)cc(N2CCN(CCO)CC2)n1.O [dasatinib, N-(2-chloro-6-methylphenyl)-2-[[6-[4-(2-hydroxyethyl)-1-piperazinyl]-2-methyl-4-pyrimidinyl]amino]-5-thiazolecarboxamide, monohydrate]
inhibition of Fyn (Fyn): inhibits

SMILES: CCN(CC)C(=S)SSC(=S)N(CC)CC [disulfuram, 1-(diethylthiocarbamoyldisulfanyl)-N,N-diethyl-methanethioamide]
proteasomal activity (proteasome): inhibits proteasomal activity
